In article PMC9127750, “Structure-based design of CDC42 effector interaction inhibitors for the treatment of cancer” (Cell reports, 2022):
Several values for one entry are separate records, joined by “and”; a condition that tells them apart may be missing. Identical values can stand only once.

Tested on: WM3248 melanoma cells, 486 antibodies
Assay: Reverse phase protein arrays (RPPA);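 on RPPA AceCS1.R.V: ratio of treated to vehicle (0 µM) normalized linear protein signal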;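 on RPPA Akt1 pS473.R.V: ratio of treated to vehicle (0 µM) normalized linear protein signal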;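 on RPPA Akt1.R.V: ratio of treated to vehicle (0 µM) normalized linear protein signal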;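 on RPPA Ambra1 pS52.R.C: ratio of treated to vehicle (0 µM) normalized linear protein signal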;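 on RPPA Atg5.R.C: ratio of treated to vehicle (0 µM) normalized linear protein signal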;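 on RPPA Bim.R.V: ratio of treated to vehicle (0 µM) normalized linear protein signal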
Type: cell-based, Human
Settings: 5 uM
Text: Pellets were snap frozen in liquid nitrogen and shipped to MD Anderson Cancer Center core RPPA facility for RPPA analysis (Table S5). Three biological replicates for each sample were generated.
Nomenclatures on the RPPA heatmaps: name_of_antibody.species_of_antibody.status_of_antibody. V - antibody validated; C - validation of antibody in progress; Q - antibody nonspecific; E – under evaluation; antibodies raised in M - mouse, G - goat, R - rabbit, or T - rat.

## CN(C)c1cccc(Nc2cc(-c3ccccc3)nc(C3CCNCC3)n2)c1 [ARN22089, N1,N1-dimethyl-N3-(6-phenyl-2-(piperidin-4-yl)pyrimidin-4-yl)benzene-1,3-diamine]
B.1
  RPPA AceCS1.R.V: 1.006
  RPPA Akt1.R.V: 0.910
  RPPA Akt1_pS473.R.V: 0.894
  RPPA Akt2.R.V: 0.975
  RPPA Akt2_pS474.R.C: 1.016
  RPPA Akt_pS473.R.V: 0.899
  RPPA Akt_pT308.R.V: 0.827
  RPPA Ambra1_pS52.R.C: 0.978
  RPPA Annexin.I.M.V: 1.021
  RPPA Atg3.R.V: 0.935
  RPPA Atg4B.R.C: 0.930
  RPPA Atg5.R.C: 0.974
  RPPA Atg7.R.V: 0.761
  RPPA Aurora.A.R.C: 1.245
  RPPA Aurora.ABC_pT288_pT232_pT198.R.C: 0.869
  RPPA Axl.R.V: 0.622
  RPPA B7.H3.R.C: 0.992
  RPPA B.Raf.R.C: 0.902
  RPPA BAP1.M.V: 0.996
  RPPA BCL2A1.R.V: 0.908
  RPPA BMK1.Erk5_pT218_Y220.R.V: 1.119
  RPPA BRCA1.M.C: 0.934
  RPPA BRD4.R.V: 1.027
  RPPA Bad_pS112.R.V: 0.939
  RPPA Bak.R.C: 0.987
  RPPA Bax.R.V: 0.996
  RPPA Bcl.xL.R.V: 1.022
  RPPA Beclin.R.C: 1.111
  RPPA BiP.GRP78.M.C: 0.998
  RPPA Bid.R.C: 0.999
  RPPA Bim.R.V: 0.906
  RPPA X4E.BP1.R.V: 0.997
  RPPA X4E.BP1_pS65.R.V: 1.205
  RPPA X4E.BP1_pT37_T46.R.V: 1.170
  RPPA X14.3.3.zeta.R.V: 1.080
  RPPA X14.3.3βR.V: 1.052
  RPPA X53BP1.R.V: 0.907
  RPPA b.Catenin.R.V: 1.025
  RPPA b.Catenin_pT41_S45.R.V: 0.975
  RPPA c.Abl.R.V: 0.965
  RPPA c.Abl_pY412.R.C: 0.885
  RPPA c.IAP2.R.C: 1.018
Average of 3
  RPPA PREX1.R.V Average: 1.056
  RPPA PYGB.R.V Average: 0.877
  RPPA PYGM.M.C Average: 0.831
  RPPA Puma.R.C Average: 0.937
  RPPA RBM15.R.V Average: 0.979
  RPPA RIP3.R.C Average: 1.059
  RPPA RIP.R.C Average: 0.875
  RPPA RPA32.R.V Average: 0.880
  RPPA RPA32_pS4_S8.R.C Average: 0.828
  RPPA RRM1.R.C Average: 0.995
  RPPA RRM2.R.C Average: 1.008
  RPPA RSK1.R.V Average: 0.889
  RPPA RSK.R.C Average: 1.023
  RPPA Rab25.R.V Average: 1.051
  RPPA Rad17_pS645.R.V Average: 1.079
  RPPA Rad23A.R.C Average: 0.869
  RPPA Rad50.R.V Average: 0.989
  RPPA Rad51.R.C Average: 1.005
  RPPA Raptor.R.V Average: 1.028
  RPPA Rb_pS807_S811.R.V Average: 1.059
  RPPA Rheb.M.C Average: 0.971
  RPPA Rictor.R.C Average: 1.019
  RPPA Rictor_pT1135.R.V Average: 1.106
  RPPA S6_pS235_S236.R.V Average: 1.300
  RPPA S6_pS240_S244.R.V Average: 1.738
  RPPA SCD.M.V Average: 1.005
  RPPA SDHA.R.V Average: 1.077
  RPPA SF2.R.V Average: 1.028
  RPPA SFRP1.R.V Average: 0.962
  RPPA SGK1.R.V Average: 1.098
  RPPA SGK3.R.V Average: 0.993
  RPPA SHP2.R.V Average: 0.993
  RPPA SHP.2_pY542.R.C Average: 0.941
  RPPA SIRPαR.V Average: 0.994
  RPPA SLC1A5.R.C Average: 0.898
  RPPA SOD1.M.V Average: 1.002
  RPPA SOD2.R.V Average: 1.033
  RPPA SOX7.R.V Average: 0.921
  RPPA STING.R.V Average: 1.006
  RPPA Shc_pY317.R.C Average: 0.879
  RPPA Slfn11.G.C Average: 0.785
  RPPA Smac.M.Q Average: 0.922
  RPPA Smad1.R.V Average: 1.113
  RPPA Smad3.R.V Average: 0.963
  RPPA Smad4.R.V Average: 1.032
  RPPA Snail.M.Q Average: 1.012
  RPPA Sox2.R.V Average: 0.986
  RPPA Sox17.R.V Average: 0.955
  RPPA Src_pY416.R.V Average: 0.979
  RPPA Src_pY527.R.V Average: 1.190
  RPPA Stat1_pY701.R.V Average: 0.966
  RPPA Stat3.R.C Average: 1.005
  RPPA Stat3_pY705.R.C Average: 0.914
  RPPA Stat5a.R.V Average: 1.163
  RPPA Stathmin.1.R.V Average: 0.991
  RPPA Syk.M.V Average: 0.987
  RPPA Synaptophysin.R.C Average: 1.017
  RPPA TAZ.R.V Average: 0.956
  RPPA TEAD.R.C Average: 1.012
  RPPA TFAM.R.V Average: 1.014
  RPPA TFRC.R.V Average: 0.971
  RPPA TIGAR.R.V Average: 1.035
  RPPA TRAP1.M.V Average: 0.973
  RPPA TRIM24.R.C Average: 0.998
  RPPA TRIP13.R.V Average: 0.948
  RPPA Tau.M.C Average: 0.996
  RPPA Transglutaminase.M.V Average: 0.913
Average of 3 replicates
  RPPA signal, antibody TSC1.R.C, Average: 1.118
  RPPA signal, antibody TTF1.R.V, Average: 0.922
  RPPA signal, antibody TUFM.R.V, Average: 1.149
  RPPA signal, antibody Tuberin.R.V, Average: 1.289
  RPPA signal, antibody Tuberin_pT1462.R.V, Average: 0.994
  RPPA signal, antibody Twist.M.C, Average: 0.991
  RPPA signal, antibody Tyro3.R.V, Average: 0.915
  RPPA signal, antibody UBAC1.R.V, Average: 0.933
  RPPA signal, antibody UBQLN4.M.C, Average: 1.031
  RPPA signal, antibody UGT1A.M.V, Average: 0.995
  RPPA signal, antibody ULK1_pS757.R.C, Average: 1.103
  RPPA signal, antibody UQCRC2.M.C, Average: 0.845
  RPPA signal, antibody UVRAG.R.C, Average: 1.060
  RPPA signal, antibody VASP.R.V, Average: 1.009
  RPPA signal, antibody VEGFR.2_pY1175.R.C, Average: 0.987
  RPPA signal, antibody VHL.EPPK1.M.C, Average: 0.993
  RPPA signal, antibody VHL.R.C, Average: 0.983
  RPPA signal, antibody Vinculin.M.V, Average: 0.997
  RPPA signal, antibody WIPI1.R.C, Average: 0.904
  RPPA signal, antibody WTAP.R.V, Average: 0.916
  RPPA signal, antibody Wee1.R.C, Average: 1.196
  RPPA signal, antibody Wee1_pS642.R.C, Average: 1.114
  RPPA signal, antibody XBP.1.G.C, Average: 0.890
  RPPA signal, antibody XPA.M.V, Average: 1.012
  RPPA signal, antibody XPF.R.C, Average: 1.010
  RPPA signal, antibody XRCC1.R.C, Average: 0.941
  RPPA signal, antibody YAP.R.C, Average: 1.005
  RPPA signal, antibody YAP_pS127.R.V, Average: 0.945
  RPPA signal, antibody YB1_pS102.R.V, Average: 0.981
  RPPA signal, antibody YES1.R.V, Average: 0.965
  RPPA signal, antibody YTHDF2.R.V, Average: 0.921
  RPPA signal, antibody YTHDF3.R.C, Average: 0.920
  RPPA signal, antibody ZAP.70.R.V, Average: 1.002
  RPPA signal, antibody ZEB1.R.V, Average: 0.953
Individual replicates
  RPPA signal, antibody TSC1.R.C: 1.023 and 1.362
  RPPA signal, antibody TTF1.R.V: 0.931 and 1.030 and 0.806
  RPPA signal, antibody TUFM.R.V: 1.892 and 0.802 and 0.754
  RPPA signal, antibody Tuberin.R.V: 0.956 and 1.663 and 1.249
  RPPA signal, antibody Tuberin_pT1462.R.V: 0.926 and 1.194 and 0.864
  RPPA signal, antibody Twist.M.C: 1.006 and 0.964 and 1.005
  RPPA signal, antibody Tyro3.R.V: 1.127 and 0.928 and 0.691
  RPPA signal, antibody U.Histone.H2B.R.C: 0.941
  RPPA signal, antibody UBAC1.R.V: 0.942 and 1.076 and 0.780
  RPPA signal, antibody UBQLN4.M.C: 0.956 and 1.187
  RPPA signal, antibody UGT1A.M.V: 1.021 and 0.968 and 0.996
  RPPA signal, antibody ULK1_pS757.R.C: 1.126
  RPPA signal, antibody UQCRC2.M.C: 0.997 and 0.500
  RPPA signal, antibody UVRAG.R.C: 0.983 and 1.130
  RPPA signal, antibody VASP.R.V: 0.982 and 1.010
  RPPA signal, antibody VAV1.R.C: 0.910 and 1.057 and 1.165
  RPPA signal, antibody VEGFR.2.R.V: 0.908 and 1.050 and 1.150
  RPPA signal, antibody VEGFR.2_pY1175.R.C: 0.907 and 1.020
  RPPA signal, antibody VHL.EPPK1.M.C: 0.920
  RPPA signal, antibody VHL.R.C: 1.080 and 0.894 and 0.975
